In patent publication US20130184302A1, “METHODS FOR TREATING IRRITABLE BOWEL SYNDROME (IBS) AND INFECTIONS” (priority 2011, published 2013):
Like-named read-outs stand apart in the source and are kept apart here.

How the values were obtained:
subjects with d-IBS = experiment: Adequate relief of IBS symptoms and bloating (weekly yes/no questions), rifaximin BID study in d-IBS; assay type: in vivo, human; conditions: for Percentage of Subjects with Adequate Relief of Bloating Symptom / Percentage of Subjects with Adequate Relief of IBS Symptoms: RFX 550 mg BID 14 days, ITT N = 191; for Percentage of Subjects with Adequate Relief of Bloating Symptom: at least two of the final three weeks of treatment phase; for Percentage of Subjects with Adequate Relief of IBS Symptoms: at least two of the final three weeks of treatment phase (Weeks 1 to 4); for Adequate Relief of Bloating, Post Treatment: Failures / Adequate Relief of Bloating, Post Treatment: Success / Adequate Relief of Bloating, Post Treatment: Failure: RFX 550 2w (N = 54); for Patients with adequate relief of bloating / Patients with adequate relief of global IBS symptoms: rifaximin 550 mg twice daily 14 days
Method: This example relates to a study of rifaximin in subjects with d-IBS. […] There were two measures of efficacy assessed. Subjects were questioned on the relief of overall IBS symptoms and bloating. […] The analyses defined success as a “yes” response to questions regarding adequate relief.
All subpopulations in the study responded to therapy. Baseline severity was determined using 7-point Lickert scales during screening for Abdominal Pain/Discomfort and Bloating, and the number, type (normal, hard, loose) and urgency of bowel movements.
Duration of effect was assessed in a follow-up period. Subjects that responded in the 4 week treatment period were followed for an additional 3 months.
The effect of treatment on the percentage of subjects who reported adequate relief of IBS and bloating symptoms for at least two of the final three weeks during the treatment phase (Weeks 1 to 4) is shown in Tables 5-7 and FIGS. 4-6 below.
The study assessed the effect over 12 weeks of follow-up on long-term adequate relief. Subjects who had adequate relief by Week 4 and remained symptom-free at Week 5 were followed during the post-treatment phase and shown in FIGS. 1 and 2. Superiority to placebo was maintained during the 12 weeks post-treatment follow-up. Results for IBS symptoms were RFX 550 mg BID 62.3% versus placebo 49.2%, and RFX 550 mg BID 59.3% versus 50.9% for placebo for the symptom of bloating through week 16. In assessing the follow-up data, there was statistical significance (p<0.05) of bloating and IBS symptoms for RFX 550 mg BID versus placebo.
Two measures of efficacy were assessed independently. The first was the proportion of subjects who provided a ‘yes’ response to the weekly SGA question: “In the past 7 days, have you had adequate relief of your IBS symptoms? (yes/no)”. The second endpoint was the proportion of subjects who provide a ‘yes’ response to the weekly individual symptom question: “In the past 7 days, have you had adequate relief of your symptom of bloating? (yes/no)”. Durability was based on the proportion of subjects that had adequate relief over the entire treatment phase.
It is reported herein that the severity of baseline symptoms of abdominal pain and bloating influenced the response to rifaximin treatment. The co-primary endpoints in this analysis assessed weekly yes/no responses to questions regarding adequate relief of global IBS symptoms and IBS-associated bloating. Severity of baseline IBS symptoms was evaluated as a potential confounder of clinical response and was categorized as mild/moderate or severe based on a mean score of ≦4 vs. >4 (on a 7-point scale) for bloating and abdominal pain.
The Weekly yes/no responses to questions regarding adequate relief of global IBS symptoms and IBS-associated bloating were assessed. Clinical response was defined as adequate relief for 2 of the final 3 treatment weeks (wk 2, 3, or 4). Severity of baseline IBS symptoms was evaluated as a potential confounder of clinical response and was categorized as mild/moderate or severe based on a mean score of ≦4 versus >4 (on a 7-point scale (0=not bothersome; 6=very bothersome)) for bloating and abdominal pain.

IBS patients = conditions: cited from earlier work
[1] = Male, RFX 1100 2w, end of the Treatment Phase
[2] = patients with mild/moderate abdominal pain at baseline
[3] = patients with mild/moderate bloating at baseline
[4] = Pimentel, et al., responders/treated
[5] = Yang, et al, responders/treated

SMILES: CO[C@H]1/C=C/O[C@@]2(C)Oc3c(C)c(O)c4c(O)c(c5c(nc6cc(C)ccn65)c4c3C2=O)NC(=O)/C(C)=C\C=C\[C@H](C)[C@H](O)[C@@H](C)[C@@H](O)[C@@H](C)[C@H](OC(C)=O)[C@@H]1C [Rifaximin, (2S,16Z,18E,20S,21S,22R, 23R,24R,25S,26S,27S,28E)-5,6,21,23,25 Pentahydroxy-27-methoxy-2,4,11,16,20,22,24,26-octamethyl-2,7-(epoxypentadeca-(1,11,13)trienimino) benzofuro (4,5-e) pyrido(1,2,-a) benzimidazole-1,15(2H)-dione,25-acetate]
- Adequate Relief of Bloating: Failure (subjects with d-IBS; Male, RFX 1100 2w): 16 (61.5%)
- Adequate Relief of IBS symptoms: Failure (subjects with d-IBS; Male, RFX 1100 2w): 14 (53.8%)
- Adequate Relief of Bloating: Success (subjects with d-IBS; [1]): 10 (38.5%)
- Adequate Relief of IBS symptoms: Success (subjects with d-IBS; [1]): 12 (46.2%)
- Percentage of Subjects with Adequate Relief of Bloating Symptom (subjects with d-IBS): 46%
- Percentage of Subjects with Adequate Relief of IBS Symptoms (subjects with d-IBS): 52%
- Percentage of Subjects with Adequate Relief of IBS Symptoms (subjects with d-IBS; listed as RFX): 52.4%
- Percentage of Subjects with Adequate Relief of Bloating Symptom (subjects with d-IBS; listed as RFX): 46.1%
- Adequate Relief of Bloating, Post Treatment: Failures (subjects with d-IBS; Week 6): (9.3%)
- Adequate Relief of Bloating, Post Treatment: Success (subjects with d-IBS; Week 6): (90.7%)
- Adequate Relief of Bloating, Post Treatment: Failures (subjects with d-IBS; Week 7): (16.7%)
- Adequate Relief of Bloating, Post Treatment: Success (subjects with d-IBS; Week 7): (83.3%)
- Adequate Relief of Bloating, Post Treatment: Failures (subjects with d-IBS; Week 8): (13.0%)
- Adequate Relief of Bloating, Post Treatment: Success (subjects with d-IBS; Week 8): (87.0%)
- Adequate Relief of Bloating, Post Treatment: Failures (subjects with d-IBS; Week 9): (27.8%)
- Adequate Relief of Bloating, Post Treatment: Success (subjects with d-IBS; Week 9): (72.2%)
- Adequate Relief of Bloating, Post Treatment: Failures (subjects with d-IBS; Week 10): (27.8%)
- Adequate Relief of Bloating, Post Treatment: Success (subjects with d-IBS; Week 10): (72.2%)
- Adequate Relief of Bloating, Post Treatment: Failures (subjects with d-IBS; Week 11): (35.2%)
- Adequate Relief of Bloating, Post Treatment: Success (subjects with d-IBS; Week 11): (64.8%)
- Adequate Relief of Bloating, Post Treatment: Failure (subjects with d-IBS; Week 12): (33.3%)
- Adequate Relief of Bloating, Post Treatment: Success (subjects with d-IBS; Week 12): (66.7%)
- Adequate Relief of Bloating, Post Treatment: Failure (subjects with d-IBS; Week 13): (38.9%)
- Adequate Relief of Bloating, Post Treatment: Success (subjects with d-IBS; Week 13): (61.1%)
- Adequate Relief of Bloating, Post Treatment: Failure (subjects with d-IBS; Week 14): (37.0%)
- Adequate Relief of Bloating, Post Treatment: Success (subjects with d-IBS; Week 14): (63.0%)
- Adequate Relief of Bloating, Post Treatment: Failure (subjects with d-IBS; Week 15): (42.6%)
- Adequate Relief of Bloating, Post Treatment: Success (subjects with d-IBS; Week 15): (57.4%)
- Adequate Relief of Bloating, Post Treatment: Failure (subjects with d-IBS; Week 16): (40.7%)
- Treatment effect, IBS Sx (subjects with d-IBS; aIBS): 31.4%*, 31.4%
- Treatment effect, Bloating (subjects with d-IBS; dIBS only): 4.5%
- Treatment effect, IBS Sx (subjects with d-IBS; dIBS only): 6.3%
- Patients with adequate relief of bloating (subjects with d-IBS; [2]): 44%
- Patients with adequate relief of global IBS symptoms (subjects with d-IBS; [2]): 50%
- Patients with adequate relief of bloating (subjects with d-IBS; [3]): 47%
- Patients with adequate relief of global IBS symptoms (subjects with d-IBS; [3]): 56%
- Long-term adequate relief of IBS symptoms, post-treatment follow-up (subjects with d-IBS; through week 16, RFX 550 mg BID, subjects with adequate relief by Week 4): 62.3%
- Initial treatment response (IBS patients; Jolley, IBS-D patients, 1200 mg/day for 10 days): Initial treatment response: 56% (25/45)
- Re-treatment response (at least 1) (IBS patients; Jolley, IBS-D patients, 2400 mg/day for 10 days): Re-treatment response (at least 1): 54%
- Complete (>90%) relief (IBS patients; Jolley, IBS-D patients): Complete (>90%) relief: 11% (5/45)
- Complete (>90%) relief upon re-treatment (IBS patients; Jolley, IBS-D patients): re-treatment: 13% (3/24)
- Re-treatment response (at least 1) (IBS patients; Pimentel, et al., 1 to 6 re-treatments): > 75%
- Initial treatment response (IBS patients; Pimentel, et al., 169 Non-C IBS Patients (Rome III), 400-550 mg TID for 14 days): Initial treatment response: 75%
- Duration of benefit (IBS patients; Pimentel, et al.): Duration of benefit is ~4 m
- Re-treatment response, First (IBS patients; [4]): 54/65
- Re-treatment response, Second (IBS patients; [4]): 38/40
- Re-treatment response, Third (IBS patients; [4]): 17/18
- Initial treatment response (IBS patients; Weinstock, 99 Non-C IBS Patients (Rome II), 1200-1650 mg/day for 10 days): Initial treatment response: 75% (74/99)
- Patients who did not require retreatment (IBS patients; Weinstock): 27% did not require retreatment
- Patients with only 12 retreatment in 2 y (IBS patients; Weinstock): 51% only 12 retreatment in 2 y
- Patients who maintained response (IBS patients; Weinstock, for mean 1.6 y): 41%
- Mean time response was maintained (IBS patients; Weinstock, in the 41% who maintained response): 1.6 y
- Re-treatment response (at least 1) (IBS patients; Yang, et al, 1200 mg/day for 10 days): 100%
- Initial treatment response (IBS patients; Yang, et al, 84 IBS Patients (Rome I), 1200 mg/day for 10 days): Initial treatment response: 69% (58/84)
- Re-treatment response, First (IBS patients; [5]): 16/16
- Re-treatment response, Second (IBS patients; [5]): 4/4
